One block for each compound: values may come before it.
Tests used:
SMYD3 [1] = target: T1, SMYD3 (Homo sapiens (Human), UniProt Q9H7B4); assay: SMYD3 biochemical assay (SPA, 3H-SAM methylation of MEKK2 protein substrate)
Outline: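 Tritium incorporation into GST-MEKK2 is counted by scintillation proximity after citric acid bead capture. Native human SMYD3 is preincubated with test compound for 30 min at room temperature at pH 8.0 (Tris-Cl, TCEP, BSG, Tween 20) before 3H-SAM and substrate are added; cold SAM at 100 uM final stops turnover.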

SMYD3 [2] = target: T1, SMYD3; assay: SMYD3 cell assay (Trimethyl-MEKK2 In-Cell Western in 293T/17 cells); type: cell-based
Outline: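 In-Cell Western ratio of trimethyl-Lys260 MEKK2 to anti-flag signal; percent inhibition from DMSO and maximum-inhibition controls, IC50 by non-linear regression, triplicates.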

[3] = read-out: SMYD3 Biochem IC50 (μM)*
[4] = 293T/17 cells, read-out: SMYD3 Cell IC50 (μM)*
[5] = Table 2A, read-out: SMYD3 Biochem IC50
[6] = Table 2A, read-out: SMYD3 Cell IC50
[7] = average of n = 1 to n = 50, read-out: SMYD3 Biochem IC50
[8] = average of n = 1 to n = 50, read-out: SMYD3 Cell IC50

T1 sequence (Q9H7B4 whole entry): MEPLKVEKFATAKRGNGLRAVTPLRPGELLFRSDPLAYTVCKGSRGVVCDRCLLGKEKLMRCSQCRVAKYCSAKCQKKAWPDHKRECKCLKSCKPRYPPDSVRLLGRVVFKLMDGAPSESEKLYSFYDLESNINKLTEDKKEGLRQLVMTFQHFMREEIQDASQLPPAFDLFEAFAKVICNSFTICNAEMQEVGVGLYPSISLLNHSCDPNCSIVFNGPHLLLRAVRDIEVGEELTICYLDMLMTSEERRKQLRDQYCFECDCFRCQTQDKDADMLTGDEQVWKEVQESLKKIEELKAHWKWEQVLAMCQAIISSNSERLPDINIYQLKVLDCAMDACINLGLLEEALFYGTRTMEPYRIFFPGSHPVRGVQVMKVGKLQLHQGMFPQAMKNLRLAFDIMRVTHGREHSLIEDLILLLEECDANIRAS

- IC50 (SMYD3 [1]; [3]): 0.433 µM
- IC50 (SMYD3 [2]; [4]): 1.42 µM
Structure (SMILES): C[C@H]1C[C@@H](NC(=O)c2cc(C3CC3)on2)CCN1S(=O)(=O)Cc1ccccc1 [compound 274, N-((2S,4S)-1-(benzylsulfonyl)-2-methylpiperidin-4-yl)-5-cyclopropylisoxazole-3-carboxamide]

Structure (SMILES): C[C@H]1CN(S(=O)(=O)CCCN)CC[C@H]1NC(=O)c1cc(C2CC2)on1 [Cpd. No. 386, N-((3S,4R)-1-(3-aminopropylsulfonyl)-3-methylpiperidin-4-yl)-5-cyclopropylisoxazole-3-carboxamide]
- IC50 (SMYD3 [1]; [3]): 0.0282 µM
- IC50 (SMYD3 [2]): 0.34 µM

- IC50 (SMYD3 [1]; [3]): 1.33 µM
- IC50 (SMYD3 [2]; [4]): 4.84 µM
Structure (SMILES): C[C@H]1C[C@@H](NC(=O)c2cc(C3CC3)on2)CCN1S(=O)(=O)N(C)C [compound 315, 5-cyclopropyl-N-((2S,4S)-1-(N,N-dimethylsulfamoyl)-2-methylpiperidin-4-yl)isoxazole-3-carboxamide]

- IC50 (SMYD3 [1]; [5]): 0.0063 µM
- IC50 (SMYD3 [2]; [6]): 0.156 µM
Structure (SMILES): C[C@@H]1C[C@H](NC(=O)c2cc(C3CC3)on2)CCN1S(=O)(=O)CC1CCN(C)CC1 [compound 568, 5-cyclopropyl-N-((2R,4R)-2-methyl-1-(((1-methylpiperidin-4-yl)methyl)sulfonyl)piperidin-4-yl)isoxazole-3-carboxamide]

- IC50 (SMYD3 [1]; [3]): 0.23 µM
- IC50 (SMYD3 [2]; read-out: SMYD3 Cell IC50 (μM)*): 3.05 µM
Structure (SMILES): CC(C)C1CC(NC(=O)c2cc(C3CC3)on2)CCN1C(=O)[C@H]1CC[C@H](N)CC1 (stereo partly shown) [compound 99, N-(1-((1r,4r)-4-aminocyclohexane-1-carbonyl)-2-isopropylpiperidin-4-yl)-5-cyclopropylisoxazole-3-carboxamide]

- IC50 (SMYD3 [1]; [5]): 0.0253 µM
- IC50 (SMYD3 [2]; [6]): 0.224 µM
Structure (SMILES): C[C@H]1CN(S(=O)(=O)CC2CCN(C)CC2)CC[C@H]1NC(=O)c1cc(C2CC2)on1 [compound 625, 5-cyclopropyl-N-((3S,4R)-3-methyl-1-(((1-methylpiperidin-4-yl)methyl)sulfonyl)piperidin-4-yl)isoxazole-3-carboxamide]

Structure (SMILES): CN(C)CCNCCCS(=O)(=O)N1[C@@H]2CC[C@H]1C[C@@H](NC(=O)c1cc(C3CC3)on1)C2 [compound 590, 5-cyclopropyl-N-((1R,3r,5S)-8-((3-((2-(dimethylamino)ethyl)amino)propyl)sulfonyl)-8-azabicyclo[3.2.1]octan-3-yl)isoxazole-3-carboxamide]
- IC50 (SMYD3 [1]; [5]): 0.0109 µM
- IC50 (SMYD3 [2]; [6]): 0.175 µM

Structure (SMILES): COCCN(C)C1CCN(S(=O)(=O)N2[C@@H]3CC[C@H]2C[C@@H](NC(=O)c2cc(C4CC4)on2)C3)CC1 [compound 916, 5-cyclopropyl-N-((1R,3r,5S)-8-((4-((2-methoxyethyl)(methyl)amino)piperidin-1-yl)sulfonyl)-8-azabicyclo[3.2.1]octan-3-yl)isoxazole-3-carboxamide]
- IC50 (SMYD3 [1]; read-out: SMYD3 Biochem IC50*): 0.0233 µM
- IC50 (SMYD3 [2]; read-out: SMYD3 Cell IC50*): 0.247 µM

Structure (SMILES): O=C(N[C@@H]1CCN(S(=O)(=O)CCCN2CCOCC2)[C@@H](Cc2ccccc2)C1)c1cc(C2CC2)on1 [compound 438, N-((2S,4R)-2-benzyl-1-((3-morpholinopropyl)sulfonyl)piperidin-4-yl)-5-cyclopropylisoxazole-3-carboxamide]
- IC50 (SMYD3 [1]; [3]): 9.18 µM
- IC50 (SMYD3 [2]; [4]): > 10 µM

Structure (SMILES): CC1CN(S(=O)(=O)N2[C@@H]3CC[C@H]2C[C@@H](NC(=O)c2cc(C4CC4)on2)C3)CC(C)N1 (stereo partly drawn) [compound 692, 5-cyclopropyl-N-((1R,3r,5S)-8-((3,5-dimethylpiperazin-1-yl)sulfonyl)-8-azabicyclo[3.2.1]octan-3-yl)isoxazole-3-carboxamide]
- IC50 (SMYD3 [1]; [7]): 0.148 µM
- IC50 (SMYD3 [2]; [8]): 0.637 µM

Structure (SMILES): CN(CCN1CCOCC1)C1CCN(S(=O)(=O)N2[C@@H]3CC[C@H]2C[C@@H](NC(=O)c2cc(C4CC4)on2)C3)CC1 [compound 973, 5-cyclopropyl-N-((1R,3r,5S)-8-((4-(methyl(2-morpholinoethyl)amino)piperidin-1-yl)sulfonyl)-8-azabicyclo[3.2.1]octan-3-yl)isoxazole-3-carboxamide]
- IC50 (SMYD3 [1]; IC50 values are an average of n = 1 to n = 50, read-out: SMYD3 Biochem IC50*): 0.0953 µM
- IC50 (SMYD3 [2]; IC50 values are an average of n = 1 to n = 50, read-out: SMYD3 Cell IC50*): 1.02 µM

Structure (SMILES): CC(C)c1cc(C(=O)N[C@H]2C[C@H]3CC[C@@H](C2)N3S(=O)(=O)CC2CCN(C)CC2)no1 [compound 879, 5-isopropyl-N-((1R,3r,5S)-8-(((1-methylpiperidin-4-yl)methyl)sulfonyl)-8-azabicyclo[3.2.1]octan-3-yl)isoxazole-3-carboxamide]
- IC50 (SMYD3 [1]; read-out: SMYD3 Biochem IC50*): 0.0107 µM
- IC50 (SMYD3 [2]; read-out: SMYD3 Cell IC50*): 0.206 µM

- IC50 (SMYD3 [1]; read-out: SMYD3 Biochem IC50*): 0.00273 µM
- IC50 (SMYD3 [2]; read-out: SMYD3 Cell IC50*): 0.0357 µM
Structure (SMILES): C[C@H]1C[C@@H](NC(=O)c2cc(C3CC3)on2)CCN1S(=O)(=O)N1CCC2(CCN2)CC1 [compound 813, N-((2S,4S)-1-((1,7-diazaspiro[3.5]nonan-7-yl)sulfonyl)-2-methylpiperidin-4-yl)-5-cyclopropylisoxazole-3-carboxamide]

Structure (SMILES): CC(C)NC1CCN(S(=O)(=O)N2[C@@H]3CC[C@H]2C[C@@H](NC(=O)c2cc(C4CC4)on2)C3)CC1 [compound 928, 5-cyclopropyl-N-((1R,3r,5S)-8-((4-(isopropylamino)piperidin-1-yl)sulfonyl)-8-azabicyclo[3.2.1]octan-3-yl)isoxazole-3-carboxamide]
- IC50 (SMYD3 [1]; read-out: SMYD3 Biochem IC50*): 0.0362 µM
- IC50 (SMYD3 [2]; read-out: SMYD3 Cell IC50*): 0.512 µM

Structure (SMILES): NCCNCCCS(=O)(=O)N1[C@@H]2CC[C@H]1C[C@@H](NC(=O)c1cc(C3CC3)on1)C2 [compound 564, N-((1R,3r,5S)-8-((3-((2-aminoethyl)amino)propyl)sulfonyl)-8-azabicyclo[3.2.1]octan-3-yl)-5-cyclopropylisoxazole-3-carboxamide]
- IC50 (SMYD3 [1]; [5]): 0.0053 µM
- IC50 (SMYD3 [2]; [6]): 0.166 µM

Structure (SMILES): O=C(N[C@H]1C[C@H]2CC[C@@H](C1)N2S(=O)(=O)CCc1ccncc1)c1cc(C2CC2)on1 [compound 739, 5-cyclopropyl-N-((1R,3r,5S)-8-((2-(pyridin-4-yl)ethyl)sulfonyl)-8-azabicyclo[3.2.1]octan-3-yl)isoxazole-3-carboxamide]
- IC50 (SMYD3 [1]; [7]): 0.491 µM
- IC50 (SMYD3 [2]; [8]): 2.4 µM

Structure (SMILES): O=C(N[C@H]1C[C@H]2CC[C@@H](C1)N2S(=O)(=O)N1C2CCC1CNC2)c1cc(C2CC2)on1 [compound 602, N-((1R,3r,5S)-8-((3,8-diazabicyclo[3.2.1]octan-8-yl)sulfonyl)-8-azabicyclo[3.2.1]octan-3-yl)-5-cyclopropylisoxazole-3-carboxamide]
- IC50 (SMYD3 [1]; [5]): 0.0145 µM
- IC50 (SMYD3 [2]; [6]): 0.132 µM

- IC50 (SMYD3 [1]; [3]): 3.74 µM
- IC50 (SMYD3 [2]; [4]): 5.76 µM
Structure (SMILES): CNc1ncccc1S(=O)(=O)N1CC[C@H](NC(=O)c2cc(C3CC3)on2)C[C@@H]1C [compound 467, 5-cyclopropyl-N-((2S,4S)-2-methyl-1-((2-(methylamino)pyridin-3-yl)sulfonyl)piperidin-4-yl)isoxazole-3-carboxamide]

- IC50 (SMYD3 [1]; [7]): 0.157 µM
- IC50 (SMYD3 [2]; [8]): 0.952 µM
Structure (SMILES): C[C@H]1CN(S(=O)(=O)CCN)[C@@H](C)C[C@H]1NC(=O)c1cc(C2CC2)on1 [compound 694, N-((2S,4R,5S)-1-((2-aminoethyl)sulfonyl)-2,5-dimethylpiperidin-4-yl)-5-cyclopropylisoxazole-3-carboxamide]

Structure (SMILES): CCN1CCC(CS(=O)(=O)N2[C@@H]3CC[C@H]2C[C@@H](NC(=O)c2cc(C4CC4)on2)C3)CC1 [compound 785, 5-cyclopropyl-N-((1R,3r,5S)-8-(((1-ethylpiperidin-4-yl)methyl)sulfonyl)-8-azabicyclo[3.2.1]octan-3-yl)isoxazole-3-carboxamide]
- IC50 (SMYD3 [1]; read-out: SMYD3 Biochem IC50*): 0.00136 µM
- IC50 (SMYD3 [2]; read-out: SMYD3 Cell IC50*): 0.0441 µM

- IC50 (SMYD3 [1]; [7]): 0.0318 µM
- IC50 (SMYD3 [2]; [8]): 0.176 µM
Structure (SMILES): C[C@@H]1CN(S(=O)(=O)N2CC[C@H](NC(=O)c3cc(C4CC4)on3)C[C@@H]2C)CCN1 [compound 634, 5-cyclopropyl-N-((2S,4S)-2-methyl-1-(((R)-3-methylpiperazin-1-yl)sulfonyl)piperidin-4-yl)isoxazole-3-carboxamide]

- IC50 (SMYD3 [1]; read-out: SMYD3 Biochem IC50*): 0.00185 µM
- IC50 (SMYD3 [2]; read-out: SMYD3 Cell IC50*): 0.0263 µM
Structure (SMILES): CCc1cc(C(=O)N[C@H]2CCN(S(=O)(=O)N3CCC(N)CC3)[C@@H](C)C2)no1 [compound 793, N-((2S,4S)-1-((4-aminopiperidin-1-yl)sulfonyl)-2-methylpiperidin-4-yl)-5-ethylisoxazole-3-carboxamide]

Structure (SMILES): NC1[C@@H]2CC[C@H]1CN(S(=O)(=O)N1[C@@H]3CC[C@H]1CC(NC(=O)c1cc(C4CC4)on1)C3)C2 (stereo partly drawn) [compound 891, N-((1R,3R,5S)-8-(((1R,5S)-8-amino-3-azabicyclo[3.2.1]octan-3-yl)sulfonyl)-8-azabicyclo[3.2.1]octan-3-yl)-5-cyclopropylisoxazole-3-carboxamide]
- IC50 (SMYD3 [1]; read-out: SMYD3 Biochem IC50*): 0.0133 µM
- IC50 (SMYD3 [2]; read-out: SMYD3 Cell IC50*): 0.145 µM

- IC50 (SMYD3 [1]; read-out: SMYD3 Biochem IC50*): 0.0868 µM
- IC50 (SMYD3 [2]; read-out: SMYD3 Cell IC50*): 1.2 µM
Structure (SMILES): O=C(N[C@H]1CCN(S(=O)(=O)N2CCNCC2)[C@@H](Cc2ccccc2)C1)c1cc(C2CC2)on1 [compound 966, N-((2S,4S)-2-benzyl-1-(piperazin-1-ylsulfonyl)piperidin-4-yl)-5-cyclopropylisoxazole-3-carboxamide]

Structure (SMILES): CC(=O)Nc1ccc(S(=O)(=O)N2CC[C@H](NC(=O)c3cc(C4CC4)on3)C[C@@H]2C)cc1 [compound 378, N-((2S,4S)-1-((4-acetamidophenyl)sulfonyl)-2-methylpiperidin-4-yl)-5-cyclopropylisoxazole-3-carboxamide]
- IC50 (SMYD3 [1]; [3]): 0.577 µM
- IC50 (SMYD3 [2]; [4]): 2.74 µM

- IC50 (SMYD3 [1]; read-out: SMYD3 Biochem IC50*): 0.0035 µM
- IC50 (SMYD3 [2]; read-out: SMYD3 Cell IC50*): 0.0672 µM
Structure (SMILES): C[C@H]1C[C@@H](NC(=O)c2cc(C3CC3)on2)CCN1S(=O)(=O)CC1CCC(N(C)C)C1 (stereo partly drawn) [compound 823, 5-cyclopropyl-N-((2S,4S)-1-(((3-(dimethylamino)cyclopentyl)methyl)sulfonyl)-2-memylpiperidin-4-yl)isoxazole-3-carboxamide]
